Source: PubChem BioAssay (NCI)
Where “and” joins values, the source holds several entries; their conditions need not be identical. Identical values can stand only once.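 Grown in 96-well plates, cells were treated for 48 hours with each compound at five concentrations. Insufficient inhibition: endpoint recorded as highest concentration tested. GI50 = concentration required for 50% inhibition of growth. TGI denotes the concentration required for complete inhibition of growth.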

Columns and labels:
Assay in all cases: NCI tumour cell line growth inhibition, 48 h
OVCAR-3 ovarian = system: OVCAR-3 ovarian
HCC-2998 colon = system: HCC-2998 colon
HCT-116 colon = system: HCT-116 colon
OVCAR-8 ovarian = system: OVCAR-8 ovarian
NCI-H460 lung = system: NCI-H460 lung
SNB-75 CNS = system: SNB-75 CNS
MALME-3M melanoma = system: MALME-3M melanoma
RXF 393 renal = system: RXF 393 renal
NCI-H522 lung = system: NCI-H522 lung

SMILES	TGI (OVCAR-3 ovarian)	TGI (HCC-2998 colon)	TGI (HCT-116 colon)	TGI (OVCAR-8 ovarian)	TGI (NCI-H460 lung)	TGI (SNB-75 CNS)	TGI (MALME-3M melanoma)	TGI (RXF 393 renal)	TGI (NCI-H522 lung)	GI50 (SNB-75 CNS)
O=NN(CCF)C(=O)NC1CC2CCC1C2 (stereo not drawn)	> 100 µM	> 100 µM	> 100 µM	> 100 µM	> 100 µM	> 100 µM	> 100 µM	> 100 µM	> 100 µM	
CN(C)CCNC(=O)c1cccc2cc3cc(O)ccc3nc12	3.61 µM	8.3 µM	5.73 µM	3.34 µM	2.16 µM	6.31 µM	2.54 µM	10 µM		
CCOC(=O)C(C)Sc1nnc(COc2ccccc2OC)n1-c1ccccc1 (stereo not drawn)	> 100 µM	> 100 µM	> 100 µM	> 100 µM	32.2 µM	> 100 µM	> 100 µM	> 100 µM	> 100 µM	
O=C1Nc2cc([N+](=O)[O-])c(Br)cc2C1=O	32.1 µM			31.6 µM	> 100 µM	52 µM	46.4 µM	39.4 µM	30.3 µM	
CCCc1c(C(=O)OCC)[nH]c(-c2ccc(-c3[nH]c(C(=O)OCC)c(CCC)c3C(=O)OCC)s2)c1C(=O)OCC	> 100 µM	> 100 µM	> 100 µM	> 100 µM	> 100 µM	58 µM	> 100 µM	28.5 µM	> 100 µM	
[O-][n+]1c(CN2CCCCC2)nc2cccc3c2c1-c1ccccc1-3	46.5 µM	31.8 µM	38.7 µM	98.2 µM	46 µM	50.2 µM	29 µM	31.1 µM		
O=c1[nH]c(=O)n(COCCO)c2ccsc12	> 100 µM	> 100 µM	> 100 µM	> 100 µM	> 100 µM	> 100 µM	> 100 µM	> 100 µM	> 100 µM	
Cc1cn(C2CC(CCCO)C(CO)O2)c(=O)[nH]c1=O (stereo not drawn)	> 100 µM	> 100 µM	> 100 µM	> 100 µM	> 100 µM	> 100 µM	> 100 µM	> 100 µM	> 100 µM	> 100 µM and 30.5 µM
CC1(C)C2CCC3(OCCO3)C1C(O)C2 (stereo not drawn)	> 100 µM	> 100 µM	> 100 µM	> 100 µM	> 100 µM	> 100 µM	> 100 µM	> 100 µM	> 100 µM	
CCSCN(C)c1nc(N(C)C)nc(N(C)C)n1	> 100 µM	> 100 µM	> 100 µM	> 100 µM	> 100 µM	> 100 µM	> 100 µM	61.3 µM	91.4 µM	
COc1cc(C2C(Cl)C(=O)N2NC(=O)c2ccc(NC(C)=O)cc2)ccc1O (stereo not drawn)	> 100 µM		> 100 µM	> 100 µM	> 100 µM		> 100 µM	> 100 µM	> 100 µM	
Cc1ccc(N(O)C(C)(C)C)cc1	> 100 µM	> 100 µM	> 100 µM	> 100 µM	> 100 µM	> 100 µM	> 100 µM	> 100 µM	> 100 µM	
COC(=O)CC(C(C(=O)OCc1ccccc1)C(C)O)N1C(=O)OC(c2ccccc2)C1c1ccccc1 (stereo not drawn)	> 100 µM	> 100 µM	> 100 µM	> 100 µM	> 100 µM		> 100 µM	> 100 µM		
O=c1c2ccccc2nc(-c2ccccc2)n1NC(=S)Nc1ccc(Cl)cc1			> 100 µM	> 100 µM	> 100 µM	> 100 µM	> 100 µM	> 100 µM	> 100 µM	
COC(=O)CCc1c(Cc2ccc[nH]2)[nH]c(C(=O)OCc2ccccc2)c1C	31 µM		32.9 µM	52.5 µM	> 100 µM		38.3 µM	49 µM	54.4 µM	
CS(=O)(=O)c1nc(-c2cc3c(c(S(C)(=O)=O)n2)CCC3)cc2c1CCCC2	> 100 µM	> 100 µM	> 100 µM	57.9 µM		23.4 µM		40.5 µM	45.9 µM	
COc1ccc2nc3c(c(NCCCN(C)C)c2c1)CCCC3	51.4 µM	21.5 µM	17.2 µM	36.4 µM	24.3 µM	26.9 µM	33.9 µM	29.5 µM	31.3 µM	
CC(=O)NNc1nc(C)c(C(=O)NNC(=O)C(=O)Nc2cccc(C(C)=O)c2)s1		32.5 µM	> 100 µM	39.4 µM	33.2 µM	38.9 µM		30 µM	28.9 µM	
Cc1ccc(Sc2ccccc2[N+](=O)[O-])cc1	> 100 µM	68.3 µM	> 100 µM	> 100 µM	> 100 µM	40.6 µM	> 100 µM	59.8 µM		
COC(=O)C(=O)C(C(=O)C(=O)Nc1cccc([N+](=O)[O-])c1)c1nc2ccc(Cl)cc2[nH]c1=O (stereo not drawn)	> 100 µM	> 100 µM	> 100 µM	> 100 µM	> 100 µM	> 100 µM		> 100 µM	> 100 µM	
